Test results taken from ChEMBL document CHEMBL1131296 (J Med Chem, 1998).

Tests used:
[1] = molecular target: T1, Adrenergic receptor alpha-2 (Rattus norvegicus, UniProt P22086+P19328+P22909); test: Antagonism of the clonidine-induced depression of twitch responses of rat isolated prostatic vas deferens.
T1 sequence (P22086 whole entry): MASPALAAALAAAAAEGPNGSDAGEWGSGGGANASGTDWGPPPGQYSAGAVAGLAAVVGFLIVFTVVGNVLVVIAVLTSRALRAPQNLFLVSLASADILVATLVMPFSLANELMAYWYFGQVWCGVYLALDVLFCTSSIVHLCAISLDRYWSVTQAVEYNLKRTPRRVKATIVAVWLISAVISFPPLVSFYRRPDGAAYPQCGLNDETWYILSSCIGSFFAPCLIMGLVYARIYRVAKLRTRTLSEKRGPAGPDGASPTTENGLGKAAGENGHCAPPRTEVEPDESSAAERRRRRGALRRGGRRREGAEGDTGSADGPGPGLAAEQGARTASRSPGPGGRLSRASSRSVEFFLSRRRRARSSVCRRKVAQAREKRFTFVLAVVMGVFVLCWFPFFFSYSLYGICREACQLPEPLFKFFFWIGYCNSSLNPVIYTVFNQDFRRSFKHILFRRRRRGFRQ
T1 sequence (P19328 whole entry): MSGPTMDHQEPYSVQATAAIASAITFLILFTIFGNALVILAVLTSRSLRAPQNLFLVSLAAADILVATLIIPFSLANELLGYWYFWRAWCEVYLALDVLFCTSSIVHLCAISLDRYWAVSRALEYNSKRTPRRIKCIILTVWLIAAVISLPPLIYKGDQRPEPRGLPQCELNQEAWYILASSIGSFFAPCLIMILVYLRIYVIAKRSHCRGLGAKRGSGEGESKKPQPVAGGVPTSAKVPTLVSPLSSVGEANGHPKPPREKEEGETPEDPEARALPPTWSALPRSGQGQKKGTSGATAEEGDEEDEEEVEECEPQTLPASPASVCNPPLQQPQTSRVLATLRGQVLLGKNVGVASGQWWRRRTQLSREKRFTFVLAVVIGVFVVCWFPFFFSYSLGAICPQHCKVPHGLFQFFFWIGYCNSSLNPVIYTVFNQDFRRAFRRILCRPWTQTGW
T1 sequence (P22909 whole entry): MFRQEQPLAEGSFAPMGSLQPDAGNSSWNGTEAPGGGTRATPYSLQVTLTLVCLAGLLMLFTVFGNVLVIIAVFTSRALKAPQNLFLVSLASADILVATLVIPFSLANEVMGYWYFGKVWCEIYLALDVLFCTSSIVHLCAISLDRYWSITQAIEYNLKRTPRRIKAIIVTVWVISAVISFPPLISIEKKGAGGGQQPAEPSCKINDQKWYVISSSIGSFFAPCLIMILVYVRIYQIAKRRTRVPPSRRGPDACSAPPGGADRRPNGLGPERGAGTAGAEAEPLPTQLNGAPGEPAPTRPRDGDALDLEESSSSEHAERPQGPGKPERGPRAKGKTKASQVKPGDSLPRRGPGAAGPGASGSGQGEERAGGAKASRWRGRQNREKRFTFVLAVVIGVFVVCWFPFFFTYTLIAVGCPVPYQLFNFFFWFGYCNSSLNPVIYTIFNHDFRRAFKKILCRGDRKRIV

[2] = molecular target: T2, Alpha-1A adrenergic receptor (Homo sapiens, UniProt P35348); test: Binding affinity at human cloned Alpha-1A adrenergic receptor in chinese hamster ovary cells by [3H]-prazosin displacement.; assay type: cell-based, CHO
T2 sequence (P35348 whole entry): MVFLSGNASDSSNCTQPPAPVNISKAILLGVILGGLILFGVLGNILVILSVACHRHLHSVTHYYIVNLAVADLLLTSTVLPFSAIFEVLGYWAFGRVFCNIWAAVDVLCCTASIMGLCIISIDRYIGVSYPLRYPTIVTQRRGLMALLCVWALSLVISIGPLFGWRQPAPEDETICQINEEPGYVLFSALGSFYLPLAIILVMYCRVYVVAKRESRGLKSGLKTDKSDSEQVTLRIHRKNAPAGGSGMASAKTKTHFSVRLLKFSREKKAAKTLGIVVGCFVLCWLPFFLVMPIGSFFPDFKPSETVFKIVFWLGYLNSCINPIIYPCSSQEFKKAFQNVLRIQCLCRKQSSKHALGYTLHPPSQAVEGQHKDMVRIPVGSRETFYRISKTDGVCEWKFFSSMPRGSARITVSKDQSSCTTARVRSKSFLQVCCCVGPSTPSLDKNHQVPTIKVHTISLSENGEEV

[3] = molecular target: T3, Alpha-1B adrenergic receptor (Homo sapiens, UniProt P35368); test: Binding affinity at human cloned Alpha-1B adrenergic receptor in chinese hamster ovary cells by [3H]prazosin displacement.; assay type: cell-based, CHO
T3 sequence (P35368 whole entry): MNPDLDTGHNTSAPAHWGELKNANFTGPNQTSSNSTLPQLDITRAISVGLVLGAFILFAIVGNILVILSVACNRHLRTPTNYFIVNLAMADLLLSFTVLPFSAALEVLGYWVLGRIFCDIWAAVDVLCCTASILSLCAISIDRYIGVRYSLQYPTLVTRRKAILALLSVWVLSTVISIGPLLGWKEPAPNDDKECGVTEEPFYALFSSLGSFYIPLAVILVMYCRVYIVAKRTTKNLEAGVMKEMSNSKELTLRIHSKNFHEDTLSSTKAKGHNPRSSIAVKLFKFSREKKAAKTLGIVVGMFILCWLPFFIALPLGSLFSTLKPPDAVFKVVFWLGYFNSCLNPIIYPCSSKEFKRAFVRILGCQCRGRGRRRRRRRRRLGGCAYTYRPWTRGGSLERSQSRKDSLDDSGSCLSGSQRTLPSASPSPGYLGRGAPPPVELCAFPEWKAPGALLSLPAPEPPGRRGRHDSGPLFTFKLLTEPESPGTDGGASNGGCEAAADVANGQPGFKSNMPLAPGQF

[4] = molecular target: T4, Alpha-1D adrenergic receptor (Homo sapiens, UniProt P25100); test: Binding affinity at human cloned Alpha-1D adrenergic receptor in chinese hamster ovary cells by [3H]prazosin displacement.; assay type: cell-based, CHO
T4 sequence (P25100 whole entry): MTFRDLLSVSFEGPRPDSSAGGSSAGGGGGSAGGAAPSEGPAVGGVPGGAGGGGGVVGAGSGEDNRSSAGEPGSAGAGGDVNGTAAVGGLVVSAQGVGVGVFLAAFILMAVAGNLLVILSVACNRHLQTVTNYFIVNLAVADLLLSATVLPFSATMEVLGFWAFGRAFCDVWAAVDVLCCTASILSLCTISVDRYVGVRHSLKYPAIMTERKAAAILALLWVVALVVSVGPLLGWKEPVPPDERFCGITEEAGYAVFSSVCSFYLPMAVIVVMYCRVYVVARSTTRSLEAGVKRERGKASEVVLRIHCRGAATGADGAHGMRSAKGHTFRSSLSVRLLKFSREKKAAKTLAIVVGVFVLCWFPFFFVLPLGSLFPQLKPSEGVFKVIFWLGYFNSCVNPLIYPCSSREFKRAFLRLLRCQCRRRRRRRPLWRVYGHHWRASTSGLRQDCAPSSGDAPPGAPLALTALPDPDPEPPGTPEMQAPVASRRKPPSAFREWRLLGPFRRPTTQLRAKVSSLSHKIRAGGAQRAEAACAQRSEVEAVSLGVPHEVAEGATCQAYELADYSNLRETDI

D(2) dopamine receptor = D(2) dopamine receptor (Rattus norvegicus, UniProt P61169); test: Binding affinity at native Dopamine receptor D2 in rat striatum by [3H]spiperone displacement.; assay type: tissue-based
Chain of D(2) dopamine receptor (P61169 whole entry): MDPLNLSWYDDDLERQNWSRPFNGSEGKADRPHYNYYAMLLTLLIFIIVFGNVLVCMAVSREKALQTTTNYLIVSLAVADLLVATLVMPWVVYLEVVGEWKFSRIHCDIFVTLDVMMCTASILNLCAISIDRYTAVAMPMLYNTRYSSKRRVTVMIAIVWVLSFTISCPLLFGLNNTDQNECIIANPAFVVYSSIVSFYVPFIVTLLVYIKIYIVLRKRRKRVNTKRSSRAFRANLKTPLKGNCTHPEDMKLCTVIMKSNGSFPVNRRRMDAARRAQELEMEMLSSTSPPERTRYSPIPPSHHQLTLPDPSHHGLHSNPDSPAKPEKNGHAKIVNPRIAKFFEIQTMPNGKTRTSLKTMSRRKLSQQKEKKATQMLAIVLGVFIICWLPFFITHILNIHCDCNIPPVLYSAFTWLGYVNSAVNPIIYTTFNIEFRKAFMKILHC

| Structure (SMILES) | pA2 [1] | Ki [2] [nM] | Ki [3] [nM] | Ki [4] [nM] | Ki (D(2) dopamine receptor) [nM] |
| --- | --- | --- | --- | --- | --- |
| COc1cc2nc(N(C)CCCCCCN(C)C(=O)c3ccco3)nc(N)c2cc1OC | 6.66 | 0.166 | 0.11 | 0.195 | – |
| COc1cc2nc(N(C)CCSSCCN(C)C(=O)c3ccco3)nc(N)c2cc1OC | < 5 | 0.417 | 1.07 | 0.724 | > 10000 |
